Patent publication US10703764B2, “Benzopiperazine compositions as BET bromodomain inhibitors” (FORMA Therapeutics, Inc., priority 2013, dated 2020)

Experiments:
[1] = biological target: T1, BRD4 BD2 (Homo sapiens, UniProt O60885); assay: AlphaScreen binding assay, BRD4 Bromodomain 2
T1 construct: made in house
Description: (§1) The binding of Example compounds to BRD4 Bromodomain 1 and BRD4 Bromodomain 2 was assessed using 384-well AlphaScreen assay technology. His-epitope tagged BRD4 BD144-168 and BRD4 BD2333-460 were cloned, expressed, and purified to homogeneity. BRD4 BD1 and BRD4 BD2 binding and inhibition was assessed by monitoring the engagement of biotinylated Histone H4 (1-21) K5/8/12/16 tetra-acetylated peptide with the targets using the AlphaScreen technology (PerkinElmer). Specifically, in a 384-well black or white flat bottom plate, BRD4 BD1 (50 nM final) or BRD4 BD2 (100 nM final) was combined with peptide (50 nM final for BD1 or 100 nM final for BD2) in 50 mM HEPES (pH 7.3), 100 mM NaCl, 0.1% (w/v) BSA, and 0.01% (w/v) Triton X-100 either in the presence of DMSO (final 1.25% DMSO) or compound dilution series in DMSO. Alpha streptavidin donor beads and Nickel-chelate acceptor beads were added to a final concentration of 10 μg/ml each. After a minimum of 1 hour equilibration, plates were read on a BMG PHERAstar FS multi-label reader (BMG LabTech). The half maximal inhibitory concentration (IC50) values were calculated using IDBS Activity Base software with a four parameter logistic curve fit by the equation y=A+((B−A)/(1+((C/x)^D))), wherein A denotes the bottom plateau of the curve, B denotes the top plateau of the curve, C denotes the x value at the middle of the curve, D denotes the slope factor, x denotes the original known x values, and y denotes the original known y values. Data was fitted using the Levenburg Marquardt algorithm.

[2] = biological target: T2, BRD4 BD1 (Homo sapiens, UniProt O60885); assay: AlphaScreen binding assay, BRD4 Bromodomain 1
T2 construct: made in house
Description: as §1

| SMILES | IC50 [1] [nM] | IC50 [2] [µM] |
| --- | --- | --- |
| CC(=O)N1c2ccc(-c3ccc(C#N)cc3)cc2N(C(=O)c2ccco2)C[C@@H]1C [Example I-811] | < 50 | 1 to 10 |
| CC(C)OC(=O)N1C[C@H](C)N(C(=O)C2CC2)c2ccc(-c3cnn(CC(=O)N(C)C4CC4)c3)cc21 [Example I-610] | 50 to 500 | 1 to 10 |
| CC(=O)N1c2ccc(-c3cnn(CC(=O)N4CCCCC4)c3)cc2N(C(=O)C2CC2)C[C@@H]1C [Example I-661] | 50 to 500 | 1 to 10 |
| CC(=O)N1c2ccc(-c3ccc(S(C)(=O)=O)cc3)cc2N(C(=O)c2ccc(S(=O)(=O)N(C)C)o2)C[C@@H]1C [Example I-983] | > 500 | > 10 |
| C[C@H]1CN(C(=O)C2CC2)c2cc(-c3ccc(C4(O)COC4)cc3)ccc2N1C(=O)C1CC1 [Example I-444] | 50 to 500 | 0.1 to 1 |
| CC(=O)N1c2ncc(-c3ccc(C(=O)N(C)C)cc3)cc2N(C(=O)c2ccco2)C[C@@H]1C [Example I-272] | 50 to 500 | 1 to 10 |
| CC(=O)N1c2ccc(-c3cnn(CC#N)c3)cc2N(C(=O)C2CC2)C[C@@H]1C [Example I-675] | 50 to 500 | 1 to 10 |
| CC(=O)N1c2ccccc2N(C(=O)c2ccc(-c3ccccc3)cc2)C[C@@H]1C [Example I-703] | > 500 | > 10 |
| COc1cccc(CC(=O)N2C[C@H](C)N(C(C)=O)c3ccccc32)c1 [Example I-699] | > 500 | > 10 |
| CC(=O)N1c2ccccc2N(Cc2ccccc2C)C[C@@H]1C [Example I-896] | > 500 | > 10 |
| CC(=O)N1c2ccc(-c3cnn(C4CC4)c3)cc2N(C(=O)Oc2ncccc2C(F)(F)F)C[C@@H]1C [Example I-1188] | > 500 | > 10 |
| CC(=O)N1c2ccc(-c3ccc(S(C)(=O)=O)cc3)cc2N(C(=O)C2CCCC2)C[C@@H]1C [Example I-244] | 50 to 500 | 1 to 10 |
| CC(=O)N1c2ccc(-c3ccc(S(C)(=O)=O)cc3)cc2N(C(=O)N2CCCC2)C[C@@H]1C [Example I-100, (S)-1-(2-methyl-6-(4-(methylsulfonyl)phenyl)-4-(pyrrolidine-1-carbonyl)-3,4-dihydroquinoxalin-1(2H)-yl)ethanone] | 50 to 500 | > 10 |
| CC(=O)N1c2ccc(-c3cnn(C4COC4)c3)cc2N(C(=O)CC(F)(F)F)C[C@@H]1C [Example I-108, (S)-1-(4-acetyl-3-methyl-7-(1-(oxetan-3-yl)-1H-pyrazol-4-yl)-3,4-dihydroquinoxalin-1 (2H)-yl)-3,3,3-trifluoropropan-1-one] | 50 to 500 | > 10 |
| CC(=O)N1c2ccccc2N(C(=O)c2cc(C)oc2C)C[C@@H]1C [Example I-749] | > 500 | > 10 |
| CC(=O)N1c2ccc(-c3ccc(S(C)(=O)=O)cc3)cc2N(C(=O)c2csc(-c3ccccc3)n2)C[C@@H]1C [Example I-885] | > 500 | > 10 |
| CC(=O)N1c2ccccc2N(Cc2ccc3c(c2)OCO3)C[C@@H]1C [Example I-920] | > 500 | > 10 |
| CC(=O)N1c2ccc(-c3cnn(C4COC4)c3)cc2N(C(=O)C2CCC2)C[C@@H]1C [Example I-11, (S)-1-(4-(cyclobutanecarbonyl)-2-methyl-6-(1-(oxetan-3-yl)-1H-pyrazol-4-yl)-3,4-dihydroquinoxalin-1(2H)-yl)ethanone] | 50 to 500 | 1 to 10 |
| CC(=O)N1c2ccc(-c3cnn(C4COC4)c3)cc2N(C(=O)C(C)C)C[C@@H]1C [Example I-109, (S)-1-(4-acetyl-3-methyl-7-(1-(oxetan-3-yl)-1H-pyrazol-4-yl)-3,4-dihydroquinoxalin-1 (2H)-yl)-2-methylpropan-1-one] | > 500 | > 10 |
| CC(=O)N1c2ccccc2N(S(=O)(=O)c2ccc(C)cc2)C[C@@H]1C [Example I-940] | > 500 | > 10 |
| COc1cc(F)ccc1-c1ccc2c(c1)N(C(=O)c1ccco1)C[C@H](C)N2C(C)=O [Example I-826] | > 500 | > 10 |
| CC(=O)N1c2ccccc2N(Cc2ccc(O)cc2)C[C@@H]1C [Example I-923] | > 500 | > 10 |
| CC(=O)N1c2ccccc2N(C(=O)C2CCCCC2)C[C@@H]1C [Example I-697] | > 500 | > 10 |
| CC(=O)N1c2ccccc2N(C(=O)c2cc3ccncc3s2)C[C@@H]1C [Example I-775] | > 500 | > 10 |
| CC(=O)N1c2ccccc2N(C(=O)c2cnc(-c3cccnc3)s2)C[C@@H]1C [Example I-726] | > 500 | > 10 |

| SMILES | IC50 [1] [nM] | IC50 [2] [µM] |
| --- | --- | --- |
| CC(=O)N1c2ccccc2N(S(=O)(=O)c2ccccc2F)C[C@@H]1C [Example I-931] | > 500 | > 10 |
| CC(C)OC(=O)N1c2ccc(-c3ccc(S(C)(=O)=O)cc3)cc2N(C(=O)c2ccco2)C[C@@H]1C [Example I-372] | > 500 | > 10 |
| CC(=O)N1c2ccc(-c3ccc(S(C)(=O)=O)cc3)cc2N(C(=O)c2cc3cc(Cl)ccc3[nH]2)CC1C (stereo not shown) [Example I-785] | 50 to 500 | 1 to 10 |
| CC(=O)N1c2ccccc2N(S(=O)(=O)Cc2cccc(C#N)c2)C[C@@H]1C [Example I-958] | > 500 | > 10 |
| CC(=O)N1c2ccc(-c3ccc(S(C)(=O)=O)cc3)cc2N(C(=O)OCc2ccccc2)C[C@@H]1C [Example I-230] | > 500 | > 10 |
| CC(=O)N1c2ccccc2N(C(=O)COc2ccc3ccccc3c2)C[C@@H]1C [Example I-734] | > 500 | > 10 |
| CC(=O)N1c2ccc(-c3ccc(S(C)(=O)=O)cc3)cc2N(C(=O)OC(C)C)C[C@H]1C [Example I-297] | > 500 | > 10 |
| COc1cc(OC(=O)N2C[C@H](C)N(C(C)=O)c3ccc(-c4cnn(C5CC5)c4)cc32)c(Cl)cn1 [Example I-1209] | 50 to 500 | 1 to 10 |
| CC(=O)N1c2ccc(-c3cnccn3)cc2N(C(=O)c2ccco2)C[C@@H]1C [Example I-384] | 50 to 500 | 1 to 10 |
| CC(=O)N1c2ccc(-c3cnn(CCO)c3)cc2N(C(=O)C2CC2)C[C@@H]1C [Example I-342] | 50 to 500 | 1 to 10 |
| CC(=O)N1CCC[C@H](CN2C[C@H](C)N(C(C)=O)c3ccccc32)C1 [Example I-928] | > 500 | > 10 |
| CC(=O)N1c2ccccc2N(Cc2ccc(C)cc2)C[C@@H]1C [Example I-895] | > 500 | > 10 |
| CC(=O)N1c2ccc(-c3ccc(S(C)(=O)=O)cc3)cc2N(C(=O)c2ccc(Oc3cc(Cl)cc(Cl)c3)o2)C[C@@H]1C [Example I-880] | > 500 | > 10 |
| CC(=O)N1c2ccc(-c3cnn(CCC(N)=O)c3)cc2N(C(=O)C2CC2)C[C@@H]1C [Example I-674] | 50 to 500 | 1 to 10 |
| CC(=O)N1c2ccc(-c3ccc(S(C)(=O)=O)cc3)cc2N(C(=O)c2cn(C)cn2)C[C@@H]1C [Example I-881] | > 500 | > 10 |
| CC(=O)N1c2ccc(-c3ccc(S(C)(=O)=O)cc3)cc2N(C(=O)Nc2ccccc2C)C[C@@H]1C [Example I-966] | > 500 | > 10 |
| CC(=O)N1c2ccc(-c3cccc(S(C)(=O)=O)c3)cc2N(C(=O)c2ccco2)C[C@@H]1C [Example I-847] | 50 to 500 | 1 to 10 |
| CC(=O)Nc1cccc(C(=O)N2C[C@H](C)N(C(C)=O)c3ccc(-c4ccc(S(C)(=O)=O)cc4)cc32)c1 [Example I-889] | > 500 | > 10 |
| CC(=O)N1c2ccc(N3CCCC3)cc2N(C(=O)c2ccco2)C[C@@H]1C [Example I-993] | 50 to 500 | 1 to 10 |
| CC(=O)N1c2ccc(-c3cnn(C4COC4)c3)cc2N(C(=O)OC2(C)CC2)C[C@@H]1C [Example I-76, (S)-1-methylcyclopropyl 4-acetyl-3-methyl-7-(1-(oxetan-3-yl)-1H-pyrazol-4-yl)-3,4-dihydroquinoxaline-1(2H)-carboxylate] | 50 to 500 | 1 to 10 |
| CC(=O)N1c2ccc(-c3cnn(C4COC4)c3)cc2N(C(=O)CC(C)C)C[C@@H]1C [Example I-105, (S)-1-(4-acetyl-3-methyl-7-(1-(oxetan-3-yl)-1H-pyrazol-4-yl)-3,4-dihydroquinoxalin-1 (2H)-yl)-3-methylbutan-1-one] | 50 to 500 | > 10 |
| CC(=O)N1c2ccc(-c3cccc4[nH]ccc34)cc2N(C(=O)c2ccco2)CC1C (stereo not shown) [Example I-846] | 50 to 500 | 1 to 10 |
| CC(=O)N1c2ccccc2N(C(=O)CC2CCOCC2)C[C@@H]1C [Example I-706] | > 500 | > 10 |
| CC(=O)N1c2ccc(-c3ccncc3)cc2N(C(=O)c2ccco2)C[C@@H]1C [Example I-820] | < 50 | 1 to 10 |
| CC(=O)N1c2ccc(-c3ccc(S(C)(=O)=O)cc3)cc2N(C(=O)NCc2ccco2)C[C@@H]1C [Example I-980] | > 500 | > 10 |
